From patent US7528106B2, “Compositions and methods for treatment of neovascular diseases” (The Scripps Research Institute, priority 2004, dated 2009)
Where “and” joins values, the source holds several entries; their conditions need not be identical. Identical values can stand only once.

System: deep retinal vascular network formation in neonatal Balb/C mice
Assay: Neonatal mouse retinal angiogenesis model
Format: in vivo
Description: Description of the Model. Immediately after birth (postnatal day zero; “P0”), retinal vasculature is virtually absent in the mouse. By four weeks after birth (P28) the retina has attained an adult pattern of retinal vessels coincident with the onset of vision. Physiological neovascularization of the retina occurs during this period via a stereotypical, biphasic developmental pattern of angiogenesis. During the primary phase of retinal vascular development, spoke-like peripapillary vessels grow radially from the central retinal artery and vein, becoming progressively interconnected by a capillary plexus that forms between them. This “inner retinal plexus” grows in area, volume and complexity, centrifugally, as a monolayer within the nerve fiber layer during the first seven to ten days following birth.
The second phase of retinal vessel formation begins between postnatal days 7 (P7) and 10 (P10) when collateral branches sprout from capillaries of the superficial plexus and penetrate into the retina where their tips branch and anastamose laterally to form a planar “deep vascular plexus”. While the deep vascular plexus is in place by P14, it undergoes extensive remodeling from P14 to P21. It is of interest to note that the formation of these vascular networks in the neonatal mouse are strikingly similar to the events occurring in the third trimester human fetus.
Advantages and Quantification of the Model. The reproducibility of the murine retinal development process and its easy accessibility in neonatal animals provide an opportunity to assess the efficacy of antiangiogenic compounds in a physiologically relevant model of angiogenesis. Additional advantages of the neonatal mouse model are the ability to qualitatively and quantitatively evaluate the angiostatic effect of putative antagonists of angiogenesis. Angiostatic activity was evaluated based upon the degree of angiogenesis in the deep, outer retinal vascular layer (secondary layer) that develops between P8 and P12. The appearance of the inner blood vessel network (primary layer) was evaluated for normal development and signs of toxicity.
Preparation of Compositions. Peptidomimetic integrin signaling inhibitor Compound (1) is solubilized in PBS at a concentration of about 20 mg/ml in PBS (1× concentration). T2-TrpRS is solubilized in PBS at a concentration of about 0.5 mg/ml (1× concentration). VEGF aptamer (pegaptanib sodium; Compound (2)) is solubilized in PBS at a concentration of about 2 mg/ml (1× concentration) to achieve an injection of approximately 1 μg/eye at 1× concentration. For all combination assays the compounds were prepared at 2 or 3 times the 1× concentration of each material and then combined to produce a final solution containing each individual compound at the same concentration as was used alone (e.g., 1×, 0.5×, 0.25× or 0.1×, as the case may be). For all assays, a single injection of 0.5 μl of PBS solutions of the drugs was administered intravitreally regardless of the number of compounds being injected. As used herein, the term “0.1×” refers to one tenth of the 1× concentration of a given material, “0.25×” refers to one quarter of the 1× concentration of a given material, “0.5×” refers to one half of the 1× concentration of a given material, and so forth for similar designations.
An in vivo angiogenesis assay in the neonatal mouse (Balb/C, The Jackson Laboratory, Bar Harbor, Me.) was used to evaluate the angiostatic activity of integrin signaling inhibitor Compound (1), T2-TrpRS, and VEGF aptamer Compound (2). Intravitreous injection and retina isolation was performed with a dissecting microscope (SMZ 645, Nikon, Japan). […] The samples (0.5 μl) were injected with a Hamilton syringe fitted with a 32-gauge needle (Hamilton Company, Reno, Nev.). The injection was made between the equator and the corneal limbus. During injection, the location of the needle tip was monitored by direct visualization to determine that it was in the vitreal cavity. […]

[1] = Ex 1, 0.1× (1×=20 mg/ml), intravitreal P8, read P12
[2] = Ex 5, 0.5× (1×=20 mg/ml), intravitreal P4, read P12
[3] = Ex 6, 0.5× (1×=20 mg/ml), intravitreal P4, read P12
[4] = Ex 7, 0.5× (1×=20 mg/ml), intravitreal P4, read P12
[5] = Ex 9, 1× of each (Comp. (1) 20, Comp. (2) 2, T2-TrpRS 0.5 mg/ml), intravitreal P4, read P12
[6] = Table 12, composite data from the Examples, 1×-2×
[7] = Table 13A, 5-10 μg per eye, intravitreal P7, read P12
[8] = Table 13C low dosing, 0.1x (integrin ant. 1.0 μg, VEGF apt. 0.20 μg, T2-TrpRS 0.025 μg)

CC(C)(C)COC(=O)N[C@@H](Cc1ccc2c(c1)NC(=O)[C@@H](CCC(=O)Nc1ncc[nH]1)O2)C(=O)[O-].[Na+] [Compound (1)]
inhibition of neovascularization (0.1× concentrations (1 μg/eye integrin antagonist, 0.2 μg/eye VEGF aptamer, 0.025 μg/eye T2-TrpRS)): negligible
% of eyes with 0-10% inhibition of deep vascular layer [1]: 40%
% of eyes with 10-25% inhibition of deep vascular layer [1]: 0.5%
% of eyes with 25-50% inhibition of deep vascular layer [1]: 20%
% of eyes with 50-75% inhibition of deep vascular layer [1]: 20%
% of eyes with 75-100% inhibition of deep vascular layer [1]: 20%
% of eyes with 0-10% inhibition of deep vascular layer [2]: 50%
% of eyes with 10-25% inhibition of deep vascular layer [2]: 33.3%
% of eyes with 25-50% inhibition of deep vascular layer [2]: 16.7%
% of eyes with 50-75% inhibition of deep vascular layer [2]: 0%
% of eyes with 75-100% inhibition of deep vascular layer [2]: 0%
% of eyes with 100% inhibition of deep vascular layer [2]: 0%
% of eyes with >95% inhibition of deep vascular layer [2]: 0%
% of eyes with 0-10% inhibition of deep vascular layer [3]: 50%
% of eyes with 10-25% inhibition of deep vascular layer [3]: 12.5%
% of eyes with 25-50% inhibition of deep vascular layer [3]: 12.5%
% of eyes with 50-75% inhibition of deep vascular layer [3]: 12.5%
% of eyes with 75-100% inhibition of deep vascular layer [3]: 12.5%
% of eyes with 100% inhibition of deep vascular layer [3]: 0%
% of eyes with >95% inhibition of deep vascular layer [3]: 0%
% of eyes with 0-10% inhibition of deep vascular layer [4]: 12.5%
% of eyes with 10-25% inhibition of deep vascular layer [4]: 25%
% of eyes with 25-50% inhibition of deep vascular layer [4]: 12.5%
% of eyes with 50-75% inhibition of deep vascular layer [4]: 12.5%
% of eyes with 75-100% inhibition of deep vascular layer [4]: 37.5%
% of eyes with 100% inhibition of deep vascular layer [4]: 0%
% of eyes with >95% inhibition of deep vascular layer [4]: 0%
% of eyes with 0-10% inhibition of deep vascular layer [5]: 25%
% of eyes with 10-25% inhibition of deep vascular layer [5]: 12.5%
% of eyes with 25-50% inhibition of deep vascular layer [5]: 12.5%
% of eyes with 50-75% inhibition of deep vascular layer [5]: 37.5%
% of eyes with 75-100% inhibition of deep vascular layer [5]: 12.5%
% of eyes with 100% inhibition of deep vascular layer [5]: 0%
% of eyes with >95% inhibition of deep vascular layer [5]: 0%
% of mice with 0-10% inhibition of deep vascular layer [6]: 33.3%
% of mice with 10-25% inhibition of deep vascular layer [6]: 20%
% of mice with 25-50% inhibition of deep vascular layer [6]: 13.3%
% of mice with 50-75% inhibition of deep vascular layer [6]: 16.7%
% of mice with 75-100% inhibition of deep vascular layer [6]: 16.7%
% of mice with 100% inhibition of deep vascular layer [6]: 0%
% of mice with >95% inhibition of deep vascular layer [6]: 0%
Percentage of retinas with 0-10% neovascular inhibition [7]: 33.3%
Percentage of retinas with 10-25% neovascular inhibition [7]: 20.0%
Percentage of retinas with 25-50% neovascular inhibition [7]: 13.3%
Percentage of retinas with 50-75% neovascular inhibition [7]: 16.7%
Percentage of retinas with 100% neovascular inhibition [7]: 0.0%
Percentage of retinas with >75% neovascular inhibition [7]: 16.7%
Percentage of retinas with >90% neovascular inhibition [7]: 0.0%
Percentage of retinas with 0-10% neovascular inhibition [8]: 90%
Percentage of retinas with 10-25% neovascular inhibition [8]: 10%
Percentage of retinas with 25-50% neovascular inhibition [8]: 0%
Percentage of retinas with 50-75% neovascular inhibition [8]: 0%
Percentage of retinas with 100% neovascular inhibition [8]: 0%
Percentage of retinas with >75% neovascular inhibition [8]: 0%
Percentage of retinas with >90% neovascular inhibition [8]: 0%
optimal effective dose (dosing experiments, bell-shaped efficacy curve, listed as integrin antagonist): 5-10 μg per eye and 10-20 nmoles per eye
retinas that exhibited over 75% inhibition (monotherapy at optimal dose): 17%
retinas unaffected by injection (monotherapy at the maximum individual dose): around 35%
